From US8252793B2, “Bradykinin receptor agonists and uses thereof to treat ocular hypertension and glaucoma” (Alcon Research, Ltd., priority 2010, dated 2012)

Legend:
[1] = target: T1, recombinant human bradykinin B2 receptor (Homo sapiens, UniProt P30411); assay: [3H]-BK competition radioligand binding to human cloned B2 receptor (CHO cell membranes); settings: 0.2 nM [3H]-bradykinin, CHO membranes, 60 min 23° C.; mean ± SEM or single value; Ki from IC50 by Cheng-Prusoff; read-out: [3H]-BK Binding to Human Cloned B2 Receptor (Ki)
T1 construct: expressed in transfected cells; host or cells: Chinese hamster ovary (CHO) cells, membrane homogenates
T1 sequence (P30411 1-391): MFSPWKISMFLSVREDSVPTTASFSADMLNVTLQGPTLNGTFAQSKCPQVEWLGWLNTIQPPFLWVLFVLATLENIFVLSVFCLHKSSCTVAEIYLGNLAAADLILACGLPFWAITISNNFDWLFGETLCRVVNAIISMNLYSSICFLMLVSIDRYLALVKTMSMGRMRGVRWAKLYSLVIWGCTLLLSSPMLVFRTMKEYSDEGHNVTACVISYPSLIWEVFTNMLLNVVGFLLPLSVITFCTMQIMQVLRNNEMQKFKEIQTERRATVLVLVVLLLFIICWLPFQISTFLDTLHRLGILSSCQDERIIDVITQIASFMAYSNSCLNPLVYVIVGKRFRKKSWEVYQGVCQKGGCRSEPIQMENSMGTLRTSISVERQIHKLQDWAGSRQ
Procedure: Chinese hamster ovary (CHO) cell membrane homogenates (2.5 μg protein) expressing the recombinant human bradykinin B2 receptor were incubated for 60 min at 23° C. with 0.2 nM [^3H]-bradykinin (95.5 Ci/mmole, PerkinElmer) in the absence or presence of the test compound in a buffer containing 50 mM Tris/HCl (pH 7.4), 0.2 g/L 1-10-phenanthroline and 0.1% BSA. All reagent and test compound additions to the assay plates were made using Biomek 3000 robotic workstations (Beckman Instruments, Fullerton, Calif.). Nonspecific binding was determined in the presence of 1 μM unlabeled bradykinin. Following the incubation, the assay was terminated by rapid filtration under vacuum through glass fiber filters (GF/C, PerkinElmer) presoaked with 0.3% polyethyleneimine and rinsed several times with an ice-cold 50 mM Tris-HCl buffer using a 96-sample cell harvester (Tomtec). The filters were air-dried and the radioactivity counted in a beta-scintillation counter (Topcount, PerkinElmer) using a scintillation cocktail (Microscint 20, PerkinElmer) (Sharif and Whiting, Neurochem. Int. 18: 89-96, 1991). Competitive binding inhibition curves were generated using a 7-point concentration—response of test compound in duplicate. Bradykinin peptide was also tested as an internal control in the assay. The data were analyzed using nonlinear, iterative curve-fitting to obtain the potency and intrinsic activities of the test agents as previously described (Sharif et al. J. Pharmacol. Exp. Ther. 286: 1094-1102, 1998; Sharif et al. Invest Ophthalmol. Vis. Sci. 39:2562-2571, 1998; Kelly et al. J. Pharmacol. Exp. Ther. 304: 238-245, 2003). Determined IC50 values were converted to Ki values using the standard Cheng-Prusoff equation.

[2] = tested on: primary human ciliary muscle cells (h-CM); assay: Total prostaglandin (PG) release from primary h-CM cells (EIA); format: cell-based; settings: Homo sapiens, 1 h, 1 hour at 37° C., class symbols (in μM)
Procedure: BK agonist compounds of Formula 1 were evaluated for the ability to induce prostaglandin (PG) release from primary human ciliary muscle cells (h-CM). Briefly, h-CM cells were grown to confluence in FNC-coated 24-well culture plates and serum-starved (0.8% FBS) for 24 hours prior to the experiment. Cells were stimulated with a 9-pt concentration-response (0.1 nM-10 μM) of bradykinin or BK agonist for 1 hour at 37° C. with subsequent sample recovery and processing for total PG measurement. Total PG measurement was determined using a total Prostaglandin Screening EIA kit (cat#514012) purchased from Cayman Chemical (Ann Arbor, Mich.). The assay was conducted according to the package insert from the manufacturer.

[3] = target: T2, BK receptors in human ciliary muscle cells (h-CM) (Homo sapiens, UniProt P30411); assay: Functional assay measuring [Ca2+]i mobilization (FLIPR) in h-CM cells; format: cell-based; settings: class symbols (in μM), read-out: CaM (EC50)
T2 construct: h-CM cells expressing BK receptors were seeded; endogenous in cells; host or cells: human ciliary muscle (h-CM) cells
T2 sequence (P30411 1-391): T1 sequence (P30411 1-391)
Procedure: On the day of the experiment, media was removed, cells were rinsed and 50 μL of serum-free media added. One vial of FLIPR Calcium Assay Kit dye was reconstituted in 50 mL of a FLIPR buffer consisting of Hank's Balanced Salt Solution (HBSS), 20 mM HEPES, and 2.5 mM probenecid, pH 7.4. Cells were loaded with the calcium-sensitive dye by addition of an equal volume (50 μL) to each well of the 96-well plate and incubated with dye for 1 h at 23° C. […] After this time, the test compound plate and cell plate were placed in a Fluorescence Imaging Plate Reader (FLIPR-Tetra®) instrument (Molecular Devices/MDSPharma, Sunnyvale, Calif.). At the beginning of an experimental run, a signal test was performed to check the basal fluorescence signal from the dye-loaded cells and the uniformity of the signal across the plate. […] An aliquot (25 μL) of the test compound was added to the existing 100 μL dye-loaded cells at a dispensing speed of 50 μL/sec. Intracellular calcium mobilization was measured by monitoring real-time changes in cellular fluorescence upon test compound addition. Fluorescence data were collected in real-time at 1.0 sec intervals for the first 60 seconds and at 6.0 second intervals for an additional 120 seconds. Baseline fluorescence readings were normalized across the plate and background-corrected from negative control wells. […] EC50 values were determined by 4-parameter nonlinear curve fitting of the concentration-response curve. Calibration of the instrument was performed using manufacturer's standard procedures.

Ki [1] [nM]	EC50 [2] [µM]	EC50 [3] [µM]	SMILES
68 ± 16	< 0.1	< 0.1	COc1nc2c(OCc3c(Cl)ccc(N(C)C(=O)CNC(=O)CCN4CCC(NC(C)=O)CC4)c3Cl)cccc2n1Cc1ccccn1 [Compound 8, 3-(4-acetamidopiperidin-1-yl)-N-(2-((2,4-dichloro-3-(((2-methoxy-1-(pyridin-2-ylmethyl)-1H-benzo[d]imidazol-4-yl)oxy)methyl)phenyl)(methyl)amino)-2-oxoethyl)propanamide]
667 ± 101	0.1 to 1	< 0.1	CCOC(=O)NC1=NCC(CCC(=O)NCC(=O)N(C)c2ccc(Cl)c(COc3cccc4c3nc(OC)n4Cc3ccccn3)c2Cl)CN1 (stereo not drawn) [Compound 9, Ethyl (5-(3-((2-((2,4-dichloro-3-(((2-methoxy-1-(pyridin-2-ylmethyl)-1H-benzo[d]imidazol-4-yl)oxy)methyl)phenyl)(methyl)amino)-2-oxoethyl)amino)-3-oxopropyl)-1,4,5,6-tetrahydropyrimidin-2-yl)carbamate]
76 ± 16	> 1	< 0.1	COc1nc2c(OCc3c(Cl)ccc(N(C)C(=O)CNC(=O)CNC4CCC(NC(C)=O)CC4)c3Cl)cccc2n1Cc1ccccn1 (stereo not drawn) [Compound 10, 2-(2-((4-acetamidocyclohexyl)amino)acetamido)-N-(2,4-dichloro-3-(((2-methoxy-1-(pyridin-2-ylmethyl)-1H-benzo[d]imidazol-4-yl)oxy)methyl)phenyl)-N-methylacetamide]
391 ± 35	> 1	< 0.1	CNC(=O)C1CCN(CCC(=O)NCC(=O)N(C)c2ccc(Cl)c(COc3cccc4c3nc(OC)n4Cc3ccccn3)c2Cl)CC1 [Compound 11]
261 ± 195	> 1	< 0.1	CNC(=O)N1CCN(CCCC(=O)NCC(=O)N(C)c2ccc(Cl)c(COc3cccc4c3nc(OC)n4Cc3ccccn3)c2Cl)CC1 [Compound 12]
262 ± 11	> 1	< 0.1	CCc1nc2c(OCc3c(Cl)ccc(N(C)C(=O)CNC(=O)CCN4CCN(C(=O)NC)CC4)c3Cl)cccc2n1Cc1ccccn1 [Compound 19, 4-(3-((2-((2,4-dichloro-3-(((2-ethyl-1-(pyridin-2-ylmethyl)-1H-benzo[d]imidazol-4-yl)oxy)methyl)phenyl)(methyl)amino)-2-oxoethyl)amino)-3-oxopropyl)-N-methylpiperazine-1-carboxamide]
1090 ± 138	> 1	0.1 to 1	CNC(=O)N1CCN(CC(=O)NCC(=O)N(C)c2ccc(Cl)c(COc3cccc4c3nc(OC)n4Cc3ccccn3)c2Cl)CC1 [Compound 20]
160 ± 47	> 1	< 0.1	COc1nc2c(OCc3c(Cl)ccc(N(C)C(=O)CNC(=O)C4CCN(C5CCNC5)C4)c3Cl)cccc2n1Cc1ccccn1 (stereo not drawn) [Compound 22, N-(2-((2,4-dichloro-3-((2-methoxy-1-(pyridin-2-ylmethyl)-1H-benzo[d]imidazol-4-yloxy)methyl)phenyl)(methyl)amino)-2-oxoethyl)-1,3′-bipyrrolidine-3-carboxamide]
171 ± 97	0.1 to 1	< 0.1	CNC(=O)N1CCC(N2CCC(C(=O)NCC(=O)N(C)c3ccc(Cl)c(COc4cccc5c4nc(OC)n5Cc4ccccn4)c3Cl)C2)C1 (stereo not drawn) [Compound 24, N3-(2-((2,4-dichloro-3-((2-methoxy-1-(pyridin-2-ylmethyl)-1H-benzo[d]imidazol-4-yloxy)methyl)phenyl)(methyl)amino)-2-oxoethyl)-N1′-methyl-1,3′-bipyrrolidine-1′,3-dicarboxamide]
74 ± 6	0.1 to 1	< 0.1	COc1nc2c(OCc3c(Cl)ccc(N(C)C(=O)CNC(=O)CCC4CN=C(NC(C)=O)NC4)c3Cl)cccc2n1Cc1ccccn1 (stereo not drawn) [Compound 25, 3-(2-acetamido-1,4,5,6-tetrahydropyrimidin-5-yl)-N-(2-((2,4-dichloro-3-(((2-methoxy-1-(pyridin-2-ylmethyl)-1H-benzo[d]imidazol-4-yl)oxy)methyl)phenyl)(methyl)amino)-2-oxoethyl)propanamide]
11	0.1 to 1	0.1 to 1	CNC(=O)c1ccc(CCC(=O)NCC(=O)N(C)c2ccc(Cl)c(COc3cccc4c(OCc5ccccn5)cc(C)nc34)c2Cl)cn1 [Compound 27, 5-(3-((2-((2,4-dichloro-3-(((2-methyl-4-(pyridin-2-ylmethoxy)quinolin-8-yl)oxy)methyl)phenyl)(methyl)amino)-2-oxoethyl)amino)-3-oxopropyl)-N-methylpicolinamide]
3	< 0.1	0.1 to 1	CC(=O)Nc1ccc(CCC(=O)NCC(=O)N(C)c2ccc(Cl)c(COc3cccc4c(OCc5ccccn5)cc(C)nc34)c2Cl)cc1 [Compound 28, 3-(4-acetamidophenyl)-N-(2-((2,4-dichloro-3-(((2-methyl-4-(pyridin-2-ylmethoxy)quinolin-8-yl)oxy)methyl)phenyl)(methyl)amino)-2-oxoethyl)propanamide]
8 ± 3	> 1	0.1 to 1	Cc1cc(OCc2ccccn2)c2cccc(OCc3c(Cl)ccc(N(C)C(=O)CNC(=O)CCc4ccc(NS(C)(=O)=O)cc4)c3Cl)c2n1 [Compound 29, N-(2-((2,4-dichloro-3-(((2-methyl-4-(pyridin-2-ylmethoxy)quinolin-8-yl)oxy)methyl)phenyl)(methyl)amino)-2-oxoethyl)-3-(4-(methylsulfonamido)phenyl)propanamide]
3	0.1 to 1	0.1 to 1	CNC(=O)c1ccc(CCC(=O)NCC(=O)N(C)c2ccc(Cl)c(COc3cccc4c(OCc5ccccn5)cc(C)nc34)c2Cl)cc1 [Compound 30]
25 ± 8	< 0.1	< 0.1	COc1nc2c(OCc3c(Cl)ccc(N(C)C(=O)CNC(=O)CCc4ccc(NC(C)=O)nc4)c3Cl)cccc2n1Cc1ccccn1 [Compound 32, 3-(6-acetamidopyridin-3-yl)-N-(2-((2,4-dichloro-3-(((2-methoxy-1-(pyridin-2-ylmethyl)-1H-benzo[d]imidazol-4-yl)oxy)methyl)phenyl)(methyl)amino)-2-oxoethyl)propanamide]
7 ± 1	< 0.1	< 0.1	CNC(=O)c1ccc(CCC(=O)NCC(=O)N(C)c2ccc(Cl)c(COc3cccc4c3nc(OC)n4Cc3ccccn3)c2Cl)cc1 [Compound 33, 4-(3-((2-((2,4-dichloro-3-(((2-methoxy-1-(pyridin-2-ylmethyl)-1H-benzo[d]imidazol-4-yl)oxy)methyl)phenyl)(methyl)amino)-2-oxoethyl)amino)-3-oxopropyl)-N-methylbenzamide]
